Source: the supplement of paper PMC10307832

What was measured:
Test in all cases: relative viability (nuclei count vs DMSO), 5 days (fraction); higher = more cells survive
Navitoclax = compound: CC1(C)CCC(c2ccc(Cl)cc2)=C(CN2CCN(c3ccc(C(=O)NS(=O)(=O)c4ccc(N[C@H](CCN5CCOCC5)CSc5ccccc5)c(S(=O)(=O)C(F)(F)F)c4)cc3)CC2)C1 [Navitoclax]
How it was run: (§1)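 In 1536-well plates, lung cancer cell lines rested overnight at 37 °C before five library-drug doses (not always all listed), √10 apart, were pinned onto vehicle-anchored plates. Nuclei were counted with MetaXpress from 4× Hoechst images taken after 5 days without medium change. Viability compares treated-well with vehicle-well nuclei as a median over plates, and plates needed control CV below 25% plus at least one doubling to pass.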

XAV939 = compound: Oc1nc(-c2ccc(C(F)(F)F)cc2)nc2c1CSCC2 [XAV939]
How it was run: as §1

[1] = compound: O=C(O)c1ccc(-c2c[nH]c3ncc(-c4ccccc4)cc23)cc1C1CCCC1
How it was run: as §1

C-75 = compound: CCCCCCCC[C@H]1[C@@H](C(=C)C(=O)O1)C(=O)O [C-75]
How it was run: as §1

AZD7762 = compound: NC(=O)Nc1cc(-c2cccc(F)c2)sc1C(=O)N[C@H]1CCCNC1 [AZD7762]
How it was run: as §1

Row | Cell Line | relative viability (Navitoclax; 0.005 µM) | relative viability (Navitoclax; 0.01581 µM) | relative viability (Navitoclax; 0.05 µM) | relative viability (Navitoclax; 0.1581 µM) | relative viability (Navitoclax; 0.5 µM) | relative viability (Navitoclax; 0.5 µM, anchor plate) | relative viability (XAV939; 0.08 µM) | relative viability (XAV939; 0.253 µM) | relative viability (XAV939; 0.8 µM) | relative viability (XAV939; 2.53 µM) | relative viability ([1]; 0.04 µM) | relative viability ([1]; 0.1265 µM) | relative viability ([1]; 0.4 µM) | relative viability ([1]; 1.265 µM) | relative viability (C-75; 0.08 µM) | relative viability (C-75; 0.253 µM) | relative viability (C-75; 0.8 µM) | relative viability (C-75; 2.53 µM) | relative viability (C-75; 8 µM) | relative viability (AZD7762; 0.01 µM) | relative viability (AZD7762; 0.03162 µM) | relative viability (AZD7762; 0.1 µM) | relative viability (AZD7762; 0.2 µM, anchor plate) | relative viability (AZD7762; 0.3162 µM) | relative viability (AZD7762; 1 µM)
1 | NCI-H647 | 0.859 | 1.04 | 1.13 | 0.871 | 0.881 | 1.12 | 1.02 | 0.845 | 0.918 | 0.866 | 0.975 | 1.03 | 0.908 | 0.709 | 0.919 | 0.996 | 0.74 | 0.915 | 0.78 | 1.04 | 1.14 | 0.923 | 0.505 | 0.616 | 0.194
2 | NCI-H650 | 0.908 | 0.97 | 0.956 | 0.853 | 1.04 |  | 1.03 | 1.08 | 0.99 | 0.824 | 0.908 | 1.03 | 0.77 | 0.67 | 0.916 | 0.875 | 0.862 | 0.87 | 0.817 | 1.08 | 1.05 | 0.905 | 1.03 | 0.954 | 0.914
3 | NCI-H661 | 0.985 | 0.995 | 1.05 | 0.916 | 0.935 |  | 1.02 | 0.952 | 0.945 | 0.956 | 0.915 | 1.02 | 0.969 | 1.01 | 0.983 | 1.01 | 0.98 | 0.911 | 0.94 | 1.03 | 1.11 | 1.1 |  | 0.979 | 0.558
4 | NCI-H727 | 0.886 | 1.18 |  | 0.87 | 0.894 | 0.491 | 1.11 | 0.731 | 0.899 | 0.975 | 0.995 | 1.01 | 0.986 | 0.928 | 0.824 | 1.4 | 0.968 | 0.73 | 1.04 | 0.838 | 1.18 | 0.953 | 0.576 | 0.764 | 0.444
5 | NCI-H838 | 0.964 | 1.02 | 1.08 | 1 | 0.97 | 1.21 | 0.965 | 0.892 | 0.805 | 0.624 | 0.972 | 1.16 | 0.994 | 0.926 | 0.989 | 0.82 | 0.941 | 0.867 | 0.895 | 1.04 | 0.982 | 1.01 | 0.944 | 0.942 | 0.599
6 | NCI-H1299 | 1 | 1.05 | 1 | 1.01 | 1.03 | 1.03 | 1.04 | 0.939 | 1.06 | 1.03 | 1.03 | 1.04 | 0.957 | 0.878 | 1.01 | 0.98 | 1.02 | 0.899 | 1.03 | 1.06 | 1.01 | 1.06 |  | 1.02 | 0.56
7 | NCI-H1355 | 1.03 | 1.07 | 0.956 | 0.975 | 0.986 | 1.01 | 0.938 | 0.831 | 0.826 | 0.759 | 1.02 | 1.14 | 0.979 | 0.744 | 0.966 | 1.01 | 0.921 | 0.89 | 0.982 | 0.874 | 0.979 | 0.938 | 0.819 | 1.09 | 0.785
8 | NCI-H1395 | 0.998 | 0.943 | 0.922 | 0.905 | 1 | 1.25 | 0.918 | 0.903 | 0.88 | 0.972 | 0.94 | 1.01 | 0.893 | 0.837 | 0.828 | 0.893 | 0.794 | 0.788 | 1.04 | 0.931 | 1.11 | 1.06 | 0.398 | 0.461 | 0.408
9 | NCI-H1437 | 0.969 | 1.05 | 0.932 | 0.958 | 0.974 | 1.06 | 1.03 | 0.901 | 0.999 | 0.93 | 0.962 | 0.988 | 0.976 | 0.586 | 0.941 | 1.05 | 0.919 | 0.984 | 0.987 | 1.05 | 0.963 | 1.04 | 1.11 | 1.01 | 0.867
10 | NCI-H1563 | 0.973 | 1.04 | 0.9 | 1.04 | 1.28 |  | 0.978 | 0.987 | 0.822 | 0.698 | 1.07 | 1.03 | 0.958 | 1.01 | 1.06 | 1.06 | 0.884 | 0.92 | 1.08 | 1.02 | 1.01 | 0.993 |  | 1.05 | 0.914
11 | NCI-H1623 | 0.936 | 0.957 | 0.812 | 0.984 | 1.03 |  | 0.922 | 0.838 | 0.848 | 0.814 | 0.963 | 0.995 | 0.932 | 0.762 | 1.02 | 1.22 | 1.02 | 0.931 | 0.978 | 0.869 | 0.938 | 0.936 |  | 1.1 | 0.895
12 | NCI-H1648 | 0.914 | 1.07 |  | 0.78 | 1.09 |  | 0.794 | 0.764 | 0.887 | 0.737 | 1 | 1.15 | 0.75 | 0.768 | 0.758 | 1.27 | 0.737 |  | 0.899 | 1.29 | 1.08 | 0.87 | 0.676 | 0.932 | 0.99
13 | NCI-H1650 | 0.896 | 1.16 | 0.97 | 1.01 | 0.857 | 1.2 | 0.955 | 0.844 | 0.888 | 0.616 | 0.891 | 1.08 | 0.985 | 0.716 | 0.925 | 0.984 | 0.927 | 0.976 | 1.09 | 0.96 | 0.929 | 0.95 |  | 0.627 | 0.267
14 | NCI-H1651 | 0.989 | 1 | 0.802 | 0.942 | 1 | 1.06 | 1 | 0.85 | 0.943 | 1 | 0.931 | 1.08 | 0.968 | 0.784 | 0.956 | 1.02 | 0.952 | 0.935 | 0.969 | 1.02 | 0.98 | 1.03 | 0.495 | 0.956 | 0.531
